Broadly, the IC50 is the concentration that gives 50% inhibition.

This is an account of results in US9873883B2, “Glyphosate resistant plants and associated methods” (Dow AgroSciences LLC, priority 2012, dated 2018).

Common to all, as to assay: In vitro kinetic assay (inorganic phosphate production, malachite green)
Type in all cases: biochemical

For experiment [1], the target named is T1, Brassica napus (canola) EPSP synthase DGT-3 (GENBANK P17688) variant DGT-3 v7 (G→A, P→S; GAPS) (Brassica napus, UniProt P17688, G173A/P178S).
T1 construct: made in house; host or cells: E. coli Rosetta2 (DE3)
The conditions noted are these: IC50 (glyphosate).

In experiment [2] the target is T2, Triticum aestivum (wheat) EPSP synthase DGT-7 variant DGT-7 v7 (G→A, P→S; GAPS) (Triticum aestivum, UniProt B5M6A1, G167A/P172S).
T2 construct: GAPS double mutant
Conditions: IC50 (glyphosate).

Experiment [3] deals with Glycine max (soybean) EPSP synthase DGT-1 variant DGT-1 v7 (G→A, P→S; GAPS) (Glycine max, UniProt I1J7U9, G182A/P187S).

Where two headings read alike, the source gives them in different places.

T2 sequence (B5M6A1 entry or part of it G167A/P172S): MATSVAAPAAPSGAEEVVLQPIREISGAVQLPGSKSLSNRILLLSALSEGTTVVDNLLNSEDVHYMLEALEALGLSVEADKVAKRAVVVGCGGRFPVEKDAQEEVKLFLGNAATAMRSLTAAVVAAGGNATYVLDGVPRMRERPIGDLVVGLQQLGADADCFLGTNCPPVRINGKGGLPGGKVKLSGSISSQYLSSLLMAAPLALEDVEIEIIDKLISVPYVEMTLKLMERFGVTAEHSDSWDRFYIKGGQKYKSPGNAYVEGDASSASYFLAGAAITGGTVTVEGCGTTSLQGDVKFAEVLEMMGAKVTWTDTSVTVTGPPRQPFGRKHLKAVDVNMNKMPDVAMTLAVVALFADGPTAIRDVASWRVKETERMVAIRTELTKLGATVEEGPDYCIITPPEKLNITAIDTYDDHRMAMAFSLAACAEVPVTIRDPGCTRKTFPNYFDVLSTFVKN
Chain of Glycine max (soybean) EPSP synthase DGT-1 variant DGT-1 v7 (G→A, P→S; GAPS) (I1J7U9 entry or part of it G182A/P187S): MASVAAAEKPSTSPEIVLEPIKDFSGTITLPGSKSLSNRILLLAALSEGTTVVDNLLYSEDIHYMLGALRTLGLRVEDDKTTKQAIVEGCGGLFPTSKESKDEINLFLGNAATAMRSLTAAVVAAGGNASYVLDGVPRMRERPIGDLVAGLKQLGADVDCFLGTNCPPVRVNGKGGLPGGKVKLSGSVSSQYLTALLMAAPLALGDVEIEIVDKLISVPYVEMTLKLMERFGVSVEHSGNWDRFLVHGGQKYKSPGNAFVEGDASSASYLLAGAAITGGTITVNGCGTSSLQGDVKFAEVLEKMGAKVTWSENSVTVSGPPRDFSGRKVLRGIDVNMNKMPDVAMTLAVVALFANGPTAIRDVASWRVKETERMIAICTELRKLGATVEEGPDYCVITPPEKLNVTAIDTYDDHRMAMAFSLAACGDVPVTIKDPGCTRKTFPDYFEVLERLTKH
T1 sequence (P17688 73-516 G173A/P178S, one chain of several): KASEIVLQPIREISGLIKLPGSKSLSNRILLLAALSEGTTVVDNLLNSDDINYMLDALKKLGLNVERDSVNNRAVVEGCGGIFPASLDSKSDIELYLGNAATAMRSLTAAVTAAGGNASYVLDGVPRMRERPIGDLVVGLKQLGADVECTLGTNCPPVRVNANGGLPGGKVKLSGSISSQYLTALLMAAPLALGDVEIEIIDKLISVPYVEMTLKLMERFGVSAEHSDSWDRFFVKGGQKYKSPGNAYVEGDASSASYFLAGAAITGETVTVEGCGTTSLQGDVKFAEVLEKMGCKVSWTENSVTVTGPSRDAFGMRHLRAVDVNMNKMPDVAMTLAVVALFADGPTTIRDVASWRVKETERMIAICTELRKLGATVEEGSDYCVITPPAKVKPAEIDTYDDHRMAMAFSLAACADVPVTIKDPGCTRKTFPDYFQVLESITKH

On to `O=C(O)CNCP(=O)(O)O` [glyphosate, N-(phosphonomethyl)glycine], for which the IC50 in experiment [1] (at 60 μM PEP) was 42 mM; in experiment [1] (at 1 mM PEP, values greater than 50 are estimates), 50.5 mM; in experiment [2] (at 60 μM PEP) it was 15.4 mM; in experiment [2] (at 1 mM PEP), 19.7 mM; in experiment [3] it was over 80 mM; in experiment [3] (read-out: IC50 (glyphosate), at 60 μM PEP, values greater than 50 are estimates), over 80 mM.
